Measured values taken from patent publication US20130004581A1, “CONTROLLING UPTAKE BY CELLS” (Ramot at Tel-Aviv University Ltd., priority 2010, published 2013).

Tests used:
[1] = test system: HaCaT cells; assay: Proton induced uptake (PIU) in HaCaT cells, FACS; format: cell-based, human; conditions: for extent of PIU of dextran-FITC compared to normal cells: 25 μM added 10 minutes prior, pH 5.2 for 10 minutes, dextran-FITC 70 kDa; for effect of actin cytoskeleton modifier on rate of PIU of dextran-FITC: latrunculin-A 1 μM, cytochalasin-B 10 μM, wortmannin 1 μM, calyculin-A 50 nM, 15 minutes before, pH 5.25 10 minutes, 70 kD dextran-FITC 5 μM
Experimental: FIG. 6 is a chart showing PIU of molecules different by size and charge, in accordance with some embodiments of the invention. Hacat cultures were exposed to solutions of pH 5.2 or pH 7.4 for 5 minutes period, in the presence of different fluorescence molecules (All at 25 μM concentration). FACS analysis results (FL1, geometrical mean±SD) for the cell cultures exposed to pH 5.2 are presented as fold induction relative to results obtained for cells exposed to pH 7.4. This can be used, in some embodiments of the invention, to assess effect of molecule size and charge on uptake.
FIGS. 7A-7B are charts showing the comparison of PIU in adherent and suspended HaCaT cells, in accordance with some embodiments of the invention. For FIG. 7A, HaCaT cells were tested either at their adherent state, or following harvest at a suspended state. […] FACS analyses (FL1) in terms of geometrical mean±SD are presented as fold induction relative to the constitutive uptake at physiological pH 7.4. n=9 in 3 independent experiments. For FIG. 7B, HaCaT Cells were cultivated at low, medium or high cell density. […] The cultures were harvested and undergone FACS analyses (FL1) in terms of geometrical mean±SD and are presented as fold induction relative to the constitutive uptake of low density cultures. Statistical significance was tested against the confluent culture, n=9 in 3 independent experiments. In the charts, * indicates a t-test p<0.05; and ** indicates a t-test p<0.01. This can be used, in some embodiments of the invention, to assess effect of cell membrane rigidity and/or tissue structure on uptake.
FIGS. 12A-12B are a chart and images which show the relative change of PIU by modifiers of actin cytoskeleton organization, in accordance with some embodiments of the invention. […].

[2] = test system: COS 5-7 cells; assay: Uptake after one minute of electric pulse train (EPT) in three-compartment device, FACS; format: cell-based, African green monkey; conditions: in the presence of both 2 mM SAA and 1 mM DHA
Experimental: Exposure of cells to low-intensity trains of unipolar rectangular voltage pulses was carried in a three-compartment exposure set-up where the anode and cathode were connected to an electric pulse generator (Grass S44 Stimulator). The exposure set-up consisted of a rectangular chamber made from polystyrene, 15 mm long, 10 mm wide, with 0.5 cm^2 area platinum electrodes positioned on the extreme sides (see FIG. 15). The chamber is divided by two porous membranes (PolyEtherSulfon, 0.8 μm pores, 200 μm depth), into three distinct and equal compartments: anode, cathode and center ones. The electric field parameters applied were monitored on line by recording the voltage and the current (by means of a wide band current probe, Pearson) on an oscilloscope. Typically, a cell suspension (1*10^6 cells/ml) is exposed to a train of electric pulses consisting of unipolar rectangular pulses with duration of 180 μs, frequency of 500 Hz for the total time of exposure of one minute.
Flow cytometry analysis was carried out by FACSort (Becton @ Dickson, San Jose, Calif.), employing a 488-nm argon laser excitation. […] Ten thousand cells were examined for each sample and data were collected in the list mode. The analysis of flow cytometry data was performed using WINMDI 2.9 software (Joe Trotter, The Scripps Research Institute). For each sample the geometrical mean was calculated without including PI stained cells. Cell intensity was determined as fold of induction relative to cells' constitutive uptake.

[3] = test system: COS 5-7 cells; assay: Intracellular oxidative stress (DCF fluorescence) after exposure to EPT, FACS; format: cell-based, African green monkey; conditions: EPT 20V/cm
Text: FIG. 18 is a chart of intracellular oxidative stress in the presence of anti-oxidants in the extracellular and the intracellular compartments, in accordance with some embodiments of the invention. The intracellular oxidative stress measured by intracellular DCF fluorescent intensity following cell exposure to electric pulse train, analyzed by FACS (488/530 nm). Results are given as folds of geometrical mean±SD relative to the level of constitutive oxidative stress. Statistical t-test results: 2 mM SAA; p<0.05, 1 mM DHA; p<0.01.
Harvested cells were incubated with H2DCF-DA (20 μM for 90 minutes 5% CO2 at 37°). Following the loading process the cells were washed once with HBSS before exposure to EPT. H2DCF-DA is a non-fluorescent form of fluorescein, passively permeating into the cell where it is cleaved by cytosolic esterase to H2DCF. It gains its fluorescent properties when oxidized into DCF. DCF intensity was analyzed by FACS using the 530/30 nm channel.
The intracellular OS level was monitored by H2DCF, a non-fluorescent probe that is oxidized by radical hydroxyls into the fluorescent DCF form. Following the cells pre-loading with H2DCF, OS levels, as monitored by intracellular DCF fluorescence intensity, are elevated only in those cells suspended and exposed to EPT in the anode compartment (20V/cm, 200 mA/cm^2). […]

[4] = test system: COS 5-7 cells; assay: Uptake after one minute of chemically induced low pH (HCl added to HBSS suspension), FACS; format: cell-based, African green monkey; conditions: 50 mM
Experimental: The following tables show a connection between pH and current. […] The values in the tables are shown as folds relative to the uptake in cells unexposed to any of the treatments. […] The results are expected to be substantially independent of cell type and molecule used, except for a cell-specific change and a molecule specific change.
Cells (COS 5-7) were harvested, re-suspended in DMEM (1 mg/ml glucose, 5% FCS), and incubated (37°, 5% CO2) as designated by the experiment. For uploading the cells with either H2DCF-DA (20 μM) or Bis-DHA (1 mM) incubation lasted 90 minutes. When no pre-treatments were required, the cells were kept in the DMEM for 30 minutes. Following incubation, the cells were centrifuged at 400g for 1 min, the solution aspirated, and cells re-suspended in HBSS exposure media.
Exposure of cells to pulse acidification was through the addition of HCl to the HBSS suspension for 60 seconds, terminated by the addition of a three fold larger volume of DMEM-H.
Cell suspensions were centrifuged (400g for one minute), their solutions aspirated and they were re-suspended with 0.5 ml DMEM-H supplemented with 10u/ml dextranase (Sigma-Aldrich) for 10 minutes at RT. Cells were centrifuged again; their solution aspirated and they were re-suspended with 0.2 ml DMEM-H. PI (25 μg/ml) as a label for permeabilized cells and tryphan blue (0.01% w/v) as a fluorescence quenching agent for extracellular FITC (36) were added to each sample shortly before analysis
Flow cytometry analysis was carried out by FACSort (Becton @ Dickson, San Jose, Calif.), employing a 488-nm argon laser excitation. The green fluorescence of FITC was measured via 530/30 nm filter, the red fluorescence of PI was detected via a 585/42 nm filter. […] Ten thousand cells were examined for each sample and data were collected in the list mode. The analysis of flow cytometry data was performed using WINMDI 2.9 software (Joe Trotter, The Scripps Research Institute). For each sample the geometrical mean was calculated without including PI stained cells. Cell intensity was determined as fold of induction relative to cells' constitutive uptake.
After one minute incubation, cell suspensions were immediately diluted with 3 fold larger volume of cold buffered DMEM to restore pH to a normal pH of 7.5.

[5] = 2 mM added to medium prior to EPT (20V/cm, 200 mA/cm^2)
Experimental: In order to determine the EPT induced oxidative stress in the extracellular media, TMB was employed, a colorless solution that transforms into blue when oxidized. TMB was added to the media before exposure to EPT. […] Light absorbance was measured using Tecan GENios plate reader at 450 nm. […] In order to moot this possibility, OS was examined in the three-compartment device, monitored by the color conversion of TMB.

N#CC(C#N)=NNc1cccc(Cl)c1 [CCCP]
extent of PIU of dextran-FITC compared to normal cells [1]: higher

O=C1OC2C(O)COC23OC24OCC(O)C2OC(=O)C4(O)OC13O (stereo not drawn) [DHA, Bis-Dehydroascorbic acid]
effect on EPT induced uptake of dextran-FITC [2]: only a minor decrease
effect on EPT induced increase of DCF fluorescent intensity ([3]; cells pre-loaded (1 mM, 90 minutes), 200 mA/cm^2): sufficient to abolish

[Cl-].[Na+] [NaCl]
change in uptake when HCl is replaced by the same concentration of salt (osmolarity control) [4]: no change in uptake was observed

O=C(CCc1ccc(O)cc1)c1c(O)cc(O)cc1O [Phloretin]
extent of PIU of dextran-FITC compared to normal cells [1]: higher

O=C1O[C@H]([C@@H](O)CO)C(O)=C1O.[Na] [SAA, Sodium ascorbic acid]
effect on EPT induced uptake of dextran-FITC [2]: only a minor decrease
decline of intracellular OS (DCF fluorescence) ([3]; 2 mM in external medium, 200 mA/cm^2, anode compartment): 66%
effect on TMB oxidation during electric exposure [5]: prevented its oxidation

COC[C@@H]([C@H](O)[C@H](O)C(=O)NCC[C@H](C)c1nc(/C=C/C[C@@H]2O[C@]3(C[C@@H](O)[C@@H]2C)O[C@H]([C@H](C[C@H](O)[C@H](C)[C@H](O)[C@H](C)/C=C(C)/C(C)=C/C=C/C(C)=C\C#N)OC)[C@H](OP(=O)(O)O)C3(C)C)co1)N(C)C [calyculin-A]
effect of actin cytoskeleton modifier on rate of PIU of dextran-FITC [1]: relatively minute impact on PIU increase

C=C1[C@@H](C)[C@H]2[C@H](Cc3ccccc3)NC(=O)[C@]23OC(=O)/C=C/[C@H](O)CCC[C@@H](C)C/C=C/[C@H]3[C@@H]1O [cytochalasin-B]
effect of actin cytoskeleton modifier on rate of PIU of dextran-FITC [1]: doubled

C/C1=C/C(=O)O[C@@H]2C[C@@H](CC[C@H](C)/C=C\C=C\CC1)O[C@@](O)([C@@H]1CSC(=O)N1)C2 [latrunculin-A]
effect of actin cytoskeleton modifier on rate of PIU of dextran-FITC [1]: only small PIU enhancement

lucifer yellow
extent of PIU compared with fluorescein and dextran ([1]; pH 5.2 vs pH 7.4, 5 minutes, 25 μM): lesser extent of PIU
